Measurements from patent publication US6541463B1, “Inhibitors of type 5 and type 3 17β-hydroxysteroid dehydrogenase and methods for their use” (Endorecherche, Inc., priority 1998, dated 2003).

Legend:
[1] = biological target: T1, human type 5 17β-hydroxysteroid dehydrogenase (Homo sapiens, UniProt P42330); test: Inhibition of human type 5 17β-HSD activity in transfected 293 cells; format: cell-based; parameters: Inhibition Type V 17B-HSD % Inh. At 3 · 10^−7 (second value in parentheses): concentration or dose not given beside the values
T1 construct: screen again a human placental λgt11 cDNA to get the full length cDNA clone; expressed in transfected cells; host or cells: human embryonal kidney 293 cells (pCMV / pCMV-neo vector)
T1 sequence (P42330 1-323): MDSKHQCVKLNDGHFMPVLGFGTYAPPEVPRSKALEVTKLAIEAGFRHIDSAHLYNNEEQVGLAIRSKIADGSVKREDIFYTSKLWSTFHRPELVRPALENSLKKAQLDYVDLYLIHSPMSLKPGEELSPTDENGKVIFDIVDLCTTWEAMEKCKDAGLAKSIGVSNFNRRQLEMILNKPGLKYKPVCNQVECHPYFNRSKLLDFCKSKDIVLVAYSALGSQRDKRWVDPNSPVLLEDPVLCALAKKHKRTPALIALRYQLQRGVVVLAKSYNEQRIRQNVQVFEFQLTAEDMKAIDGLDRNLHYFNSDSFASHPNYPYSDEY
Method: The manner in which IC50 was determined is described in “Efficacy of the Preferred Inhibitors”. Lower numbers for IC50 are desirable.
Using a oligoprimer pair (5′-GGA-AAT-CGT-GAC-AGG-GAA-TGG-ATT-CCA-AAC-AG-3′, 5′-GGA-ATT-CTT-TAT-TGT-ATT-TCT-GGC-CTA-TGG-AGT-GAG-3′) derived from human aldoketoreductase (Qin et al., J. Steroid Biochem. Molec. Biol. 46: 673-679, 1993) and polymerase chain reaction (PCR), we have amplified from a human placental λgt11 cDNA library (Clontech Laboratories Inc., Palo Alto, Calif.) a cDNA fragment that was used as probe to screen again a human placental λgt11 cDNA to get the full length cDNA clone. The amplified cDNA fragment was purified on agarose gel and labeled with [α^32P]dCTP (Amersham Corp.) using the random primer labeling kit from Pharmacia Inc. PCR amplification reaction medium contained 50 mM KCl, 10 mM Tris-HCl, pH 8.3, 0.1% gelatin, 1 mM MgCl2, 250 μM dNTP, 0.25 μM oligonucleotide primers, and 200 ng of DNA prepared from human placental λgt11 cDNA library. The aqueous phase was overlaid with 75 μL of mineral oil to avoid evaporation. The mixture was heated at 98° C. for 5 min, following the temperature reduction to 72° C., 1 unit of Taq DNA polymerase was added. Using a DNA Thermal Cycler (Perkin-Elmer Corp.), 30 cycles of amplification were carried out using a step program (94° C., 1 min; 60° C., 1 min; and 72° C., 1 min)/cycle.
Approximately 5×10^5 recombinant phage plaques were screened with 1.5×10^6 cpm/ml of the probe. Prehybridization was performed for 4 h at 42° C. in 50% formamide, 5× Denhardt's solution (1× Denhardt's being 0.02% polyvinyl pyrrolidone, 0.02 Ficoll, 0.02 bovine serum albumin), 5×SSPE (1×SSPE being 0.18M NaCl, 10 mM NaH2PO4, pH 7.4, 1 mM EDTA), 0.1% SDS, and 100 μg/ml yeast tRNA. The probe was denatured by heating at 100° C. for 5 min, before being added to the hybridization solution at 42° C. overnight. Filters were then washed twice at room temperature in 2×SSC (1×SSC being […], pH 7.0), 0.1% SDS, and twice in 0.1×SSC, 0.1% SDS at 60° C. Positive recombinant plaques were purified by replating twice and grown in liquid culture. Phage DNA were isolated by centrifugation for 90 min at 105,000×g, and DNA was then isolated by phenol extraction and precipitation with isopropanol (Karen et al. 1987; In: Current Protocols in Molecular Biology (F. M. Ausubel, R. Brent, E. Kingston, D. D. Moore, T. G. Seidman, T. A. Smith and K. Struhl, eds), Wiley & Sons, New York, pp. 1.13.1-1.13.6).
The phage DNA were digested with EcoRI restriction enzymes and the resulting cDNA fragments were inserted into the EcoRI site downstream to the cytomegalovirus (CMV) promoter of the pCMV vector (kindly provided by Dr. Matthew, Cold Spring Harbor, N.Y., USA). Recombinant pCMV plasmids were amplified in Escherichia Coli DH5α competent cells, and were isolated by alkaline lysis procedure (Maniatis et al., In: Molecular cloning: a laboratory manual, Cold Spring Harbor Laboratory., 1982). Sequencing of double-stranded plasmid DNA was performed according to the dideoxy chain termination method (Sanger et al., PNAS 74: 5453-5467, 1977) using a T7 DNA polymerase sequencing kit (Pharmacia LKB Biotechnology). To avoid errors, all sequences were determined by sequencing both strands of the DNA. Oligonucleotide primers were synthesized in our laboratory with a 394 DNA/RNA synthesizer (Applied Biosystem).
The pCMV vector contain 576 nucleotides of the pCMV promoter (followed by 432 bp of small t intron (fragment 4713-4570) and poly adenylation signal (2825-2536)of SV40, followed by 1989 bp of the Pvu II(628)-AatII (2617) fragment from pUC 19 vector (New England Biolabs) that contains an E. Coli origin of replication and an ampicillin resistance gene for propagation in E. Coli. […]

[2] = tested on: Shionogi mouse mammary carcinoma cells; test: Androgenic activity: stimulation of proliferation of Shionogi cells; format: cell-based
Method: In column 9, the androgenic activity of preferred type 5 inhibitors expressed as the percentage of stimulation of proliferation of Shionogi cells at concentrations of 10^−7 M (left number) and 10^−6 M (right number) of inhibitor. The manner in which the stimulation is determined is described in “Other Tests; B-Androgenic/Antiandrogenic Activity”. Lower numbers are desirable. ND means that a determination was not done.
(§1) Androgenic/antiandrogenic activity of some preferred compounds has been measured using the Shionogi mouse mammary carcinoma cells.
(§2) Minimal essential culture medium (MEM), non-essential amino acids, and fetal calf serum were purchased from Flow Laboratories. In order to remove endogenous steroids, serum was incubated overnight at 4° C. with 1% activated charcoal (Norit A, Fisher) and 0.1% Dextran T-70 (Pharmacia). A 2-h supplementary adsorption was performed at 25° C. in order to further remove protein-bound steroids. Serum was also inactivated by a 20-min incubation at 56° C.
(§3) 5α-dihydrotestosterone (DHT) was obtained from Steraloids. The antiandrogen hydroxyflutamide (OH-FLU) was kindly supplied by Drs. T. L. Nagabuschan and R. Neri (Schering Corporation, Kenilworth, U.S.A.).
(§4) Shionogi male mice bearing androgen-sensitive mammary tumors were obtained from Drs. Keishi Matsumoto, Osaka, Japan, and Yvonne Lefebvre, Ottawa, Canada. For primary culture, tumors were excised and washed in ice-cold sterile 25 mM Hepes buffer (137 mM NaCl; 5 mM KCl; 0.7 mM Na2HPO4; 10 mM glucose, pH 7.2). After mincing with scissors, the tumor minces were digested for 2 h at 37° C. in Hepes buffer containing 3.8 mg/ml collagenase (Clostridium, Boehringer), 1.5 mg/ml hyaluronidase II (Sigma), and 3% bovine serum albumin fraction V (Schwartz-Mann). Dispersed cells were collected by centrifugation (500×g for 10 min), washed twice by suspension in minimal essential medium (MEM) containing 5% dextran-coated charcoal-treated fetal calf serum (DCC-FCS), 1% non-essential amino acids, 10 IU/ml penicillin, 50 μg/ml streptomycin, and 100 nM dihydrotestosterone (DHT) (Steraloids).
(§5) Cells were plated in the same medium at a density of 75 000 cells/ml in 75 cm^2 flasks under an atmosphere of 5% carbon dioxide in air at 37° C. The medium was changed weekly. The steroids and antisteroids were dissolved in ethanol and kept in stock solutions chosen to yield final ethanol concentrations less than 0.01% in the culture medium.
(§6) Cells were subcultured at near-confidence by gentle digestion in a solution of 0.1% pancreatin (Flow Laboratories) in Hepes buffer containing 3 mM ethylenediaminetetraacetic acid (EDTA) (pH 7.2). Cells were pelleted by centrifugation, resuspended in culture medium, counted in a Coulter counter, and replated as described above. Soft agar cloning was performed as described (Stanley et al., Cell 10: 35-44, 1977) in the presence of 100 nM DHT.
(§7) Cells were plated in 24-well plates at a density of 20 000 cells/well. The indicated increasing concentrations of agents were added to triplicate dishes, and cells were grown for 10-12 days with changes of medium every 3-4 days. Cell number was measured by direct counting in a Coulter counter.
(§8) ED50 values of action of DHT and glucocorticoids were calculated according to a least-square regression as described (Rodbard, Endocrinology 94: 1427-1431, 1974). Statistical significance was calculated according to a multiple-range test (Kramer, Biometrics 12: 307-310,1956).

[3] = biological target: T2, human type 2 17β-hydroxysteroid dehydrogenase (Homo sapiens, UniProt P37059); test: Enzymatic assay for type 2 17β-HSD; format: biochemical; details: Table 4′; bracketed values, 3 · 10^−8M
T2 construct: expressed in transfected cells; host or cells: 293 cells, transient transfection; microsomal fraction (100 000×g pellet)
T2 sequence (P37059 1-387): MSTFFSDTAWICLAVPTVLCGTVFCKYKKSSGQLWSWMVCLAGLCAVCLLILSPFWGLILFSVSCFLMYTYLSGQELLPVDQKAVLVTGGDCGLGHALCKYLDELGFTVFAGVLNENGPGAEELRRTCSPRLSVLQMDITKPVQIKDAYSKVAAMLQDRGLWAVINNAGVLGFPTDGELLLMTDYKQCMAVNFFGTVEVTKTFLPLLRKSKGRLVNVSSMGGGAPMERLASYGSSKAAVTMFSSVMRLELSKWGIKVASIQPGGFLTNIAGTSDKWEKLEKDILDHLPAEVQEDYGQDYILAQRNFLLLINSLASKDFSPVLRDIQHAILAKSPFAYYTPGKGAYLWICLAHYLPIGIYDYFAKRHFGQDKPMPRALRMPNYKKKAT
Method: The manner in which IC50 was determined is described in “Efficacy of Preferred Inhibitors: VI. Enzymatic assay for types 1, 2, and 3 17β-HSD and types 1 and 3 3α-HSD”. […] numbers of IC50 are desirable. Blank means that a determination was not done. […]
Enzyme sources. 293 cells transiently transfected with expression vectors encoding types 1, 2 and 3 17β-HSD (Luu-The et al., J. Steroid Biochem. Molec. Biol., 55: 581-587, 1995), types 1 and 2 5α-reductase (Luu-The et al., J. Invest. Dermatol., 102: 221-226, 1994) and types 1 and 3 3α-HSD (Dufort et al. Biochem. Biophys. Res. Commun. 228: 474-479, 1996), using the calcium phosphate procedure (Kingston et al., In: Current Protocols in Molecular Biology. Edited by E. M. Ausbel, R. Brent, R. E. Kingston, D. D. Moore, J. G. Seidman, J. A. Smith, K. Struhl. John Wiley & Sons, New York, pp. 9.1.1-9.1.9, 1991; Luu-The et al., J. Invest. Dermatol., 102: 221-226, 1994). For assays using cell subfractions, cells were sonicated in 50 mM sodium phosphate buffer (pH 7.4), containing 20% glycerol and 1 mM EDTA and centrifuged at 10 000×g for 30 min before centrifugation for 100 000×g for 1 h to separate the mitochondrial and microsomal fractions, respectively. The cytosol fractions (100 000×g supernatant) was used to determine type 1 activity while the microsomal fraction (pellet at 100 000×g) was used for measurement of types 2 and 3 17β-HSD activities.
Incubation. The enzymatic reaction was carried out at 37° C. in 1 ml of 50 mM sodium phosphate buffer, pH 7.4, containing 20% glycerol, 1 mM EDTA, and 2 mM cofactors (NADPH or AND^+) for 1 h in the presence of 0.1 μM ^14C-labeled substrate: estrone and 4-dione for types 1 and […] 17β-HSD, respectively, testosterone for type 2 17β-HSD as well as types 1 and 2 5α-reductases, DHT for types 1 and 3 3α-HSD activities, and the indicated concentration of inhibitor.
Extraction of metabolites, migration on TLC and quantification were as described above for the assay of type 5 17β-HSD.

[4] = tested on: Shionogi mouse mammary carcinoma cells; test: Antiandrogenic activity: inhibition of DHT-induced proliferation of Shionogi cells; format: cell-based; details: Table 4′, DHT-induced proliferation
Method: The manner in which the inhibition is determined is described in “Other Tests; B-Androgenic/Antiandrogenic Activity”. Lower numbers are desirable. ND means that a determination was not done.
as §1, §2, §3, §4, §5, §6, §7, §8

CCCCCO[C@]1(C(C)=O)CC[C@H]2[C@@H]3C=C(C)C4=CC(=O)CC[C@]4(C)[C@H]3CC[C@@]21C [EM-1127, 6-Methyl-17α-pentyloxy-4,6-pregnadien-3,20-dione]
Inhibition Type V 17β-HSD % Inh. ([1]; at 3.10^−6): 91) % | Inhibition Type V 17β-HSD % Inh. ([1]; at 3.10^−7): (71% | Androgenic Activity Shionogi, Basal ([2]; E^−6): 92 | Androgenic Activity Shionogi, Basal ([2]; E^−7): 85

CC(=O)O[C@]1(C(C)=O)CC[C@H]2[C@@H]3C[C@H](C)C4=CC(=O)CC[C@]4(C)[C@H]3CC[C@@]21C [Medroxyprogesterone acetate, reference compound]
inhibition of type 5 17β-hydroxysteroid dehydrogenase (in words) [1]: inhibit that type 5 enzyme

CCC1(CC)CC[C@@]2(CC[C@H]3[C@@H]4CCc5cc(O)ccc5[C@H]4CC[C@@]32C)OC1=O [EM-1416, 1,3,5(10)-Estratrien-3-ol-17(R)-spiro-2′-(5′,5′-diethyl-6′-oxo)tetrahydropyran]
Inhibition Type 2 17β-HSD Activity [% Inh. at 3 · 10^−8M] [3]: [76] % | Androgenic Activity Shionogi, Basal E^−6 ([2]; Table 4′, E^−6): −4% | Androgenic Activity Shionogi, Basal E^−7 ([2]; Table 4′, E^−7): 28% | Antiandrogenic Activity Shionogi, DHT E^−6 ([4]; E^−6 (10^−6 M)): −41% | Antiandrogenic Activity Shionogi, DHT E^−7 ([4]; E^−7): 26%

CC(=O)O[C@]1(C(C)=O)CC[C@H]2[C@@H]3C=C(Cl)C4=CC(=O)CC[C@]4(C)[C@H]3CC[C@@]21C [chlormadinone acetate, reference compound]
inhibition of type 5 17β-hydroxysteroid dehydrogenase (in words) [1]: inhibit that type 5 enzyme

CC12CCC(=O)C=C1C=CC1C2CCC2(C)C(=O)C3CCCC3C12 (stereo not shown) [SA-208-59]
Inhibition Type V 17B-HSD % Inh. At 3 · 10^−7 (first value in parentheses) ([1]; first of two concentrations, 3 · 10^−7): (72% | Inhibition Type V 17B-HSD % Inh. At 3 · 10^−7 (second value in parentheses) ([1]; second of two concentrations, 3 · 10^−7): 88) %
